Source: article PMC13576449, “Small-Molecule Activators of PRMT1: Discovery, SAR Analyses, and Proapoptotic Effects in Pancreatic Cancer Cells” (Journal of Medicinal Chemistry, 2026)

Experiments:
PANC-1 cells = experiment: Annexin V/PI flow cytometry apoptosis assay, PANC-1; type: cell-based, human; conditions: TR-07 10 μM; for gemcitabine-induced apoptosis, AV/PI flow cytometry, co-treatment: TR-033 5 µM, TR-036 10 µM, ICTR-059 5 µM, after 24 h gemcitabine 1 μM, 48 h, vs gemcitabine alone
Procedure: 6 Effect of small-molecule modulators on gemcitabine-induced apoptosis and tumor growth of PDAC cells. […] After 2 h, gemcitabine (GEM) was added at increasing concentrations (10 and 25 nM) or not (−) for another incubation of 72 h. Subsequently, the luminescence-based caspase3/7 assay was performed. The activity of caspase 3/7 in treated cells was normalized to the activity measured in untreated cells (dark gray bar), which was set to 1 (mean SD, n = 6 for PANC-1 and n = 4 for PaTu8988T; *: p ≤ 0.05, **: p ≤ 0.01, ***: p ≤ 0.001, using the student t-test). […] After 24 h, gemcitabine (GEM, 1 μM) was added (+) or not (−) for another incubation of 48 h. Subsequently, the apoptotic cell fraction was quantified in % by flow cytometry using FITC-labeled Annexin V (AV) and propidium iodide (PI) staining (in B: mean ± SD, n = 6 for PANC-1 and n = 5 for PaTu8988T; **: p ≤ 0.01, ***: p ≤ 0.001, ****: p ≤ 0.0001, using the student t-test). […] Viable cells are AV/PI double-negative (AV–/PI–, lower left quadrant, Q4), early apoptotic cells are AV single-positive (AV+/PI– upper left quadrant, Q1), late apoptotic cells are AV/PI double-positive (AV+/PI+, upper right quadrant, Q2), and necrotic cells are PI single-positive (AV–/PI+, lower right quadrant, Q3). The sum of early and late apoptotic cell numbers ([…] in %) is indicated in red. D-G: The workflow of the PDAC xenograft experiments in mice is depicted in D. PANC-1 cells (2 × 10^6 cells/mouse) were subcutaneously (s.c.) injected in the right flank of female athymic nude mice. Small tumor nodules appeared 6 days post-engraftment. […] Tumor volumes were measured every second day using a digital caliper. […] At the end of the 2 weeks, mice were sacrificed and tumors were dissected (F).
For quantification of apoptosis by Fluorescence Activated Cell Sorting (FACS), PANC-1 and PaTu8988T cells were seeded in 6-well plates (250 × 10^3 cells/well) and cultured in the absence or presence of compounds. After 24 h, gemcitabine was added or not for another 48 h. After harvesting and washing, unfixed cells (0.5–1 × 10^6) were incubated with FITC-labeled Annexin V and/or PI (BD Pharmingen) according to the manufacturer’s instructions. All samples were analyzed using a BD FACSCalibur flow cytometer (BD Bioscience). Data were acquired using the CellQuestPro program and analyzed with the FlowJo (FlowJo LLC) software. […]
induced apoptosis in PDAC cell lines.
(§1) After 24 hours, gemcitabine (GEM, 1 µM) was added (+) or not
(§2) (-) for another incubation of 48 hours. Subsequently, the apoptotic cell fraction was assessed by flow cytometry using FITC-labeled Annexin V (AV) and propidium iodide (PI) staining and quantified in % (mean ± SD, n=3-4; ns: not significant, *: p ≤0.05, **: p ≤0.01, ***: p ≤0.001, ****: p ≤0.0001, using the student t-test).

PaTu8988T cells = experiment: Annexin V/PI flow cytometry apoptosis assay, PaTu8988T; type: cell-based, human; conditions: for gemcitabine-induced apoptosis, AV/PI flow cytometry, co-treatment: TR-033 5 µM, TR-036 10 µM, ICTR-059 5 µM, after 24 h gemcitabine 1 μM, vs gemcitabine alone
Procedure: 6 Effect of small-molecule modulators on gemcitabine-induced apoptosis and tumor growth of PDAC cells. […] Subsequently, the luminescence-based caspase3/7 assay was performed. The activity of caspase 3/7 in treated cells was normalized to the activity measured in untreated cells (dark gray bar), which was set to 1 (mean SD, n = 6 for PANC-1 and n = 4 for PaTu8988T; *: p ≤ 0.05, **: p ≤ 0.01, ***: p ≤ 0.001, using the student t-test). […] After 24 h, gemcitabine (GEM, 1 μM) was added (+) or not (−) for another incubation of 48 h. Subsequently, the apoptotic cell fraction was quantified in % by flow cytometry using FITC-labeled Annexin V (AV) and propidium iodide (PI) staining (in B: mean ± SD, n = 6 for PANC-1 and n = 5 for PaTu8988T; **: p ≤ 0.01, ***: p ≤ 0.001, ****: p ≤ 0.0001, using the student t-test). […] Viable cells are AV/PI double-negative (AV–/PI–, lower left quadrant, Q4), early apoptotic cells are AV single-positive (AV+/PI– upper left quadrant, Q1), late apoptotic cells are AV/PI double-positive (AV+/PI+, upper right quadrant, Q2), and necrotic cells are PI single-positive (AV–/PI+, lower right quadrant, Q3). The sum of early and late apoptotic cell numbers (Q2+Q3 in %) is indicated in red. D-G: The workflow of the PDAC xenograft experiments in mice is depicted in D. PANC-1 cells (2 × 10^6 cells/mouse) were subcutaneously (s.c.) injected in the right flank of female athymic nude mice. […] Tumor volumes were measured every second day using a digital caliper. […] At the end of the 2 weeks, mice were sacrificed and tumors were dissected (F).
For quantification of apoptosis by Fluorescence Activated Cell Sorting (FACS), PANC-1 and PaTu8988T cells were seeded in 6-well plates (250 × 10^3 cells/well) and cultured in the absence or presence of compounds. After 24 h, gemcitabine was added or not for another 48 h. After harvesting and washing, unfixed cells (0.5–1 × 10^6) were incubated with FITC-labeled Annexin V and/or PI (BD Pharmingen) according to the manufacturer’s instructions. All samples were analyzed using a BD FACSCalibur flow cytometer (BD Bioscience). Data were acquired using the CellQuestPro program and analyzed with the FlowJo (FlowJo LLC) software.
as §1, §2

| Compound | gemcitabine-induced apoptosis, AV/PI flow cytometry, co-treatment (PANC-1 cells) | gemcitabine-induced apoptosis, AV/PI flow cytometry, co-treatment (PaTu8988T cells; PaTu8988T, TR-07 10 μM, 48 h) | apoptosis, AV/PI flow cytometry, single agent (PANC-1 cells) | viability at 10 µM (PaTu8988T cells; Homo sapiens, PaTu 8988t, 48 h, read-out: Q4, viable cells (AV–/PI–)) [%] | apoptosis, AV/PI flow cytometry, single agent (PaTu8988T cells; PaTu8988T, TR-07 10 μM) |
| --- | --- | --- | --- | --- | --- |
| CCN(CC)Cc1cccc(N/C=C2\C(=O)NC(=O)c3ccccc32)c1.Cl [TR-036, (Z )-N-(3-{[(1,3-Dioxo-2,3-dihydroisoquinoline-4(1 H )-ylidene)methyl]amino}benzyl)-N -ethylethanaminium chloride] | rather diminished the gemcitabine-triggered cell death | rather diminished the gemcitabine-triggered cell death |  |  |  |
| (Z)-2-(2-{[(1,3-Dioxo-2,3-dihydroisoquinolin-4(1H)-ylidene)methyl]amino}phenyl)-N,N-dimethylethan-1-aminium chloride [ICTR-059] | had no effect | weakly enhanced the gemcitabine-induced apoptosis |  |  |  |
| CN(C)Cc1cccc(-c2ccc3[nH]c(=O)c4ccccc4c3c2)c1 [TR-033, 2-{3-[(Dimethylamino)methyl]phenyl}phenanthridin-6(5H)-One] | rather diminished the gemcitabine-triggered cell death | rather diminished the gemcitabine-triggered cell death |  |  |  |
| CN(C)Cc1cccc(CN/C=C2\C(=O)NC(=O)c3ccccc32)c1.Cl [TR-07, (Z)-1-[3-({[(1,3-Dioxo-2,3-dihydroisoquinolin-4(1H)-lidene)methyl]amino}methyl)phenyl]-N,N-dimethylmethanaminium chloride] | significant increase in the early and late apoptotic stages | significant increase in the early and late apoptotic stages | did not significantly induce apoptosis | 95.8 | did not significantly induce apoptosis |
